The source of these data is patent US20050187262A1, “Compositions comprising (S)-amlodipine and an angiotensin receptor blocker and methods of their use” (priority 2004, published 2005).

What all share (assay type): in vivo, rat
Data set [1] deals with rats. As for the experimental part: (§1) (S)-amlodipine malate and seven ARBs (candasartan, eprosartan, irbesartan, losartan, olmesartan, telmisartan and valsartan) were evaluated. The study was conducted in three parts. Phase I evaluated the time-course of the hypotensive actions of all eight agents ([S]-amlodipine and the seven ARBs). In Phase II, the dose-responsive effects of [S]-amlodipine malate and the seven ARBs were evaluated individually. From this phase of the study, ED30 and ED50 doses of each of the seven ARBs were identified, defined as the dose that produced 30 or 50 percent of the hypotensive effect produced by a rapid i.v. injection (30 μg/kg) of sodium nitroprusside (NTP), a short-acting vasodilator. In Phase III, the dose response to [S]-amlodipine was evaluated in the presence and absence of the ED30 and ED50dose of each of the seven ARBs, with the objective of comparing the extent to which each ARB, at its ED30 or ED50, shifted the dose-response curve of [S]-amlodipine to the left and thus, lowering the apparent ED50 of the calcium channel blocker.
(§2) Animals were anesthetized with thiobutabarbital sodium (Inactin®, 150 mg/kg, delivered i.p.), tracheotomized and placed on a thermostatically controlled heating pad (37-38° C.). The jugular vein and the carotid artery were cannulated with PE-50 tubing for drug administration and recording of cardiovascular parameters, respectively. Blood pressure was recorded from the carotid artery by means of a pressure transducer and heart rate was derived electronically from the blood pressure signal. The signal output derived electronically from the arterial pressure was analyzed with a digital computer. The software IOX-16 continuously recorded the data every 5 sec during the entire procedure for each rat. Raw arterial pressure (in mmHg) and heart rate (beats per min), as well as changes in these two parameters relative to baseline or pre-drug levels (for doses other than initial dose), both in raw units (mm Hg or beats per min [bpm]) and as percentage change from baseline were captured and analyzed. The animals were allowed to equilibrate for 15-20 min before any treatment.
(§3) Doses are expressed in terms of free active substance. Each treatment was administered in a volume of 1 mL/kg by slow (over 20-30 seconds) i.v. bolus for all test articles, in all three phases.
(§4) The data were reported as mean±S.E.M. (standard error of the mean) from 3-5 rats per group. Raw arterial pressure (in mmHg) and heart rate (beats per min), as well as changes in these two parameters relative to baseline or pre-drug levels (for doses other than initial dose), both in raw units (mmHg or beats per min [bpm]) and as percentage change from baseline, were captured and analyzed.

In data set [2] the test system is rats. In words: Phase II: dose-responsive hypotensive effects of the individual agents, ED30/ED50 relative to sodium nitroprusside. The conditions noted are these: for ED30: dose causing 30% of the maximal drop in blood pressure produced by sodium nitroprusside 30 μg/kg i.v.; for ED50: Rattus norvegicus. As for the experimental part:
as §1, with “From this phase of the study, ED30 and ED50 doses of each of the seven ARBs were identified, defined as the dose that produced 30 or 50 percent of the hypotensive effect produced by a rapid i.v. injection (30 μg/kg) of sodium nitroprusside (NTP), a short-acting vasodilator.” left out
as §2, with “The” for “Animals were anesthetized with thiobutabarbital sodium (Inactin®, 150 mg/kg, delivered i.p.), tracheotomized and placed on a thermostatically controlled heating pad (37-38° C.). The”
as §3, §4

Data set [3] deals with rats. Put plainly: Phase III: dose response to (S)-amlodipine malate in the absence and presence of an ARB. Conditions: for position/shift of the dose response curve of (S)-amlodipine malate plus ARB versus (S)-amlodipine malate alone: ARB given at its ED30, FIGS. 1A and 1B; for ED50: Rattus norvegicus, iv, ARB given at its ED30, read-out: apparent ED50 of (S)-amlodipine malate when combined with the ARB; for Potential Dosage Adjustment (%): extent to which (S)-amlodipine malate could be lowered when co-administered with the ARB. As for the experimental part: as §1, §2, §3, §4
ED30 and ED50 for each drug were defined as the dose causing a decline in arterial pressure corresponding to 30% and to 50%, respectively, of the maximal drop in blood pressure produced by fast bolus i.v. injection (30 μg/kg) of sodium nitroprusside.
Dose-response curves with (S)-amlodipine malate in the absence and presence of each of the seven ARBs at its ED30 are shown in FIGS. 1A and 1B. The data shown in the figures are from experiments in which ED30 doses of each of the ARBs was combined with (S)-amlodipine malate. These were chosen because ED30 doses were obtainable by direct interpolation of dose response curves from Phase II. For several of the ARBs, doses corresponding to ED50 were obtained from extrapolation of their dose response curves.

[4] abbreviates: iv, dose causing 50% of the maximal drop in blood pressure produced by sodium nitroprusside 30 μg/kg i.v., read-out: ED50 (estimated).
Setting [5] is: iv, hypotensive effect did not reach 50% of the maximum NTP effect, read-out: ED50 (extrapolated from dose response curve).

Turning to `CCOC(=O)C1=C(COCCN)NC(C)=C(C(=O)OC)[C@@H]1c1ccccc1Cl.O=C(O)C[C@H](O)C(=O)O` [(S)-amlodipine malate, (S)-Amlodipine-L-Malate], the “time post-injection to maximum/peak hypotensive effect” value with rats [1] (100 μg/kg i.v.) is 35 to 55 min. Further, the “maximum effect, decrease in blood pressure” value with rats [1] (100 μg/kg i.v., anesthetized rats) was 14-17 mmHg. Besides, the “maximum decline in MBP from baseline values” with rats [2] (doses 3 to 300 μg/kg i.v.) stood at 49±1%. The compound also gave an ED30 in the data set on rats [2] (i.v.) of 0.056 mg/kg. Besides, the “ED50 (estimated)” value with rats [2] (i.v., dose causing 50% of the maximal drop in blood pressure produced by sodium nitroprusside 30 μg/kg i.v.) was 0.11 mg/kg. Also, the “HR after injection of each dose” value with rats [2] (rat, in vivo, iv) was “gradually and concomitantly increased”. Further, the “ED50 of (S)-amlodipine malate in the absence of an ARB” value in the data set with rats [3] (i.v., no ARB) came out at 0.092 mg/kg.

Usually ED50 stands for the dose at which the effect has come halfway, by size or by number of responders. Consider `CCOc1nc2cccc(C(=O)O)c2n1Cc1ccc(-c2ccccc2-c2nnn[nH]2)cc1` [Candasartan, 2-ethoxy-1-[[2′-(1H-tetrazol-5-yl)[1,1′-biphenyl]-4-yl]methyl]-1H-benzimidazole-7-carboxylic acid], for which, in the data set on rats [1] (30 μg/kg i.v.), the “time post-injection to maximum decline of MBP” value is recorded as 30 min. The “maximum declines of mean blood pressure (MBP)” value in the data set with rats [1] (30 μg/kg i.v., at 30 min post-injection) is on record as “about 20 mmHg”. Besides, in the data set on rats [2] (300 mg/kg i.v.), the “decline in MBP at the next higher dose” value is recorded as “no further decline”. For the same compound, in the data set on rats [2] (setting [4]), the ED50 is 0.052 mg/kg. Moreover, the ED30 in the data set on rats [2] (i.v.) was determined as 0.008 mg/kg. The “maximum decrease in MBP from baseline values” (shortened to “maximum decrease in MBP”) in the data set on rats [2] (reached with 100 μg/kg i.v.) was found to be 34±2%. Moreover, the “position/shift of the dose response curve of (S)-amlodipine malate plus ARB versus (S)-amlodipine malate alone” value (shortened to “position/shift”) in the data set with rats [3] was “offset”.

As for `CCCCc1ncc(/C=C(\Cc2cccs2)C(=O)O)n1Cc1ccc(C(=O)O)cc1` [Eprosartan, (E)-α-[[2-butyl-1-[(4-carboxyphenyl)methyl]-1H-imidazol-5-yl]methylene]-2-thiophenepropanoic acid], the “fall in MBP from baseline values at the next higher dose” value (“fall in MBP from baseline values” below) in the data set with rats [2] (3000 mg/kg i.v.) was 23±2%. Besides, the ED50 in the data set on rats [2] (setting [5]) is around 7 mg/kg; in the data set on rats [3] it was 0.07 mg/kg. The ED30 in the data set on rats [2] (i.v.) was found to be 0.104 mg/kg. Moreover, the “maximum decrease in MBP” value with rats [2] (reached with 1000 μg/kg i.v.) came out at 22±2%. Also, the “Potential Dosage Adjustment (%)” value in the data set with rats [3] amounted to 24%.

As for `CCCCC1=NC2(CCCC2)C(=O)N1Cc1ccc(-c2ccccc2-c2nnn[nH]2)cc1` [Irbesartan, 2-butyl-3-[[2′-(1H-tetrazol-5-yl)[1,1′-bephenyl]-4-yl]methyl]-1,3-diazaspiro[4,4]non-1-en-4-one], the ED50 with rats [2] (setting [4]) was 2.21 mg/kg; in the data set with rats [3] it was 0.071 mg/kg. For the same compound, in the data set with rats [2] (i.v.), the ED30 was determined as 0.649 mg/kg. The “maximum decrease in MBP” value in the data set on rats [2] (reached with 3,000 μg/kg i.v.) is given as 28±1%. Moreover, the “Potential Dosage Adjustment (%)” value in the data set with rats [3] came out at 23%.

For the compound `CCCCc1nc(Cl)c(CO)n1Cc1ccc(-c2ccccc2-c2nnn[nH]2)cc1` [Losartan, 2-butyl-4-chloro-1-[[2′-(1H-tetrazol-5-yl)[1,1′-biphenyl]-4-yl]methyl]-1H-imidazole-5-methanol], the ED50 with rats [2] (setting [5]) is 10 mg/kg. This compound also had an ED30 in the data set on rats [2] (i.v.) of 0.625 mg/kg. For the same compound, the “maximum decrease in MBP” value in the data set with rats [2] (reached with 3,000 μg/kg i.v.) is given as 23±3%. In the data set on rats [3], the ED50 amounted to 0.078 mg/kg and the “Potential Dosage Adjustment (%)” value came to 15%.

For the compound `CCCc1nc2c(C)cc(-c3nc4ccccc4n3C)cc2n1Cc1ccc(-c2ccccc2C(=O)O)cc1` [Telmisartan, 4′-[(1,4′-dimethyl-2′-propyl[2,6′-bi-1H-benzimidazol]-1′-yl)methyl]-[1,1′-biphenyl]-2-carboxylic acid], the “fall in MBP from baseline values” value in the data set on rats [2] (1000 mg/kg i.v.) stood at 23±3%. Also, the ED50 in the data set with rats [2] (setting [5]) was around 2 mg/kg. The same compound displayed an ED30 in the data set with rats [2] (i.v.) of 0.242 mg/kg. For the same compound, the “maximum decrease in MBP” value in the data set with rats [2] (reached with 300 μg/kg i.v.) is 19±2%. Also, the “position/shift” value with rats [3] was “offset”.

`CCCCC(=O)N(Cc1ccc(-c2ccccc2-c2nnn[nH]2)cc1)[C@H](C(=O)O)C(C)C` [Valsartan, N-(1-oxopentyl)-N-[[2′-(1H-tetrazol-5-yl)[1,1′-biphenyl]-4-yl]methyl]-L-valine]: the “fall in MBP from baseline values” value with rats [2] (1000 mg/kg i.v.) is on record as 19±3%. In the data set on rats [2] (setting [5]), the ED50 was around 4 mg/kg. For the same compound, the ED30 in the data set on rats [2] (i.v.) was determined as 0.229 mg/kg. Besides, the “maximum decrease in MBP” value in the data set on rats [2] (reached with 300 μg/kg i.v.) came to 18±3%. Moreover, in the data set on rats [3], the “position/shift” value is on record as “greatest leftward shift”, the ED50 turned out to be 0.063 mg/kg and the “Potential Dosage Adjustment (%)” value was determined as 32%.
